For one assay, the target named is Carbonic anhydrase 1 (Homo sapiens, UniProt P00915). As to the kind of experiment: Inhibition of human carbonic anhydrase 1 by stopped-flow CO2 hydrase assay.
The target of the next assay is Carbonic anhydrase 2 (Homo sapiens, UniProt P00918). As to the kind of experiment: Inhibition of human carbonic anhydrase 2 by stopped-flow CO2 hydrase assay.
In the next assay the target is Carbonic anhydrase 9 (Homo sapiens, UniProt Q16790). As to the kind of experiment: Inhibition of human carbonic anhydrase 9 by stopped-flow CO2 hydrase assay.

Structures are written as SMILES.

Data on 12 compounds can be found in ChEMBL document CHEMBL3585297, “New amide derivatives of Probenecid as selective inhibitors of carbonic anhydrase IX and XII: biological evaluation and molecular modelling studies” (Bioorg Med Chem, 2015).

Sequence of Carbonic anhydrase 1 (P00915 whole entry): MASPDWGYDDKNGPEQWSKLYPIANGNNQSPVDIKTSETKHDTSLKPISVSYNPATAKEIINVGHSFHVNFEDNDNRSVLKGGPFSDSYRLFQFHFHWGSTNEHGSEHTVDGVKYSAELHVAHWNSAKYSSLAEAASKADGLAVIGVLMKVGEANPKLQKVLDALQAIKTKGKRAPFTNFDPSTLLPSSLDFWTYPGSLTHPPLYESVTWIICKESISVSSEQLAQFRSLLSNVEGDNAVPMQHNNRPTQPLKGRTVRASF

Usually Ki stands for a measure of affinity in units of concentration, obtained from inhibition or displacement. As for `CCCN(CCC)S(=O)(=O)c1ccc(C(=O)NC2CCC(C)CC2)cc1` (centres undefined), the values for the Ki on Carbonic anhydrase 1, at Carbonic anhydrase 2 and at Carbonic anhydrase 9 were over 10 µM, over 10 µM and 2.02 µM, respectively.

With `CCCN(CCC)S(=O)(=O)c1ccc(C(=O)Nc2ccc([N+](=O)[O-])cc2)cc1`, the inhibition constant (Ki) is over 10 µM on Carbonic anhydrase 1, over 10 µM on Carbonic anhydrase 2 and 0.246 µM on Carbonic anhydrase 9.

`CCCN(CCC)S(=O)(=O)c1ccc(C(=O)Nc2ccccc2Cl)cc1`: the Ki was over 10 µM on Carbonic anhydrase 1, over 10 µM at Carbonic anhydrase 2 and 0.0236 µM at Carbonic anhydrase 9.

On to `CCCN(CCC)S(=O)(=O)c1ccc(C(=O)NCCCN2CCOCC2)cc1`, for which the figures for the Ki at Carbonic anhydrase 1, at Carbonic anhydrase 2 and at Carbonic anhydrase 9 were over 10 µM, over 10 µM and 0.213 µM, respectively.

Regarding `CCCN(CCC)S(=O)(=O)c1ccc(C(=O)Nc2ccncc2)cc1`, the Ki was over 10 µM at Carbonic anhydrase 1, over 10 µM on Carbonic anhydrase 2 and 2.04 µM at Carbonic anhydrase 9.

With `CCCN(CCC)S(=O)(=O)c1ccc(C(=O)NCCN2CCCCC2)cc1`, the Ki on Carbonic anhydrase 1 was over 10 µM; on Carbonic anhydrase 2, over 10 µM; on Carbonic anhydrase 9, 1.26 µM.

On to `CCCN(CCC)S(=O)(=O)c1ccc(C(=O)NC2CCCC(C)C2)cc1` (centres undefined), for which the Ki was over 10 µM on Carbonic anhydrase 1, over 10 µM on Carbonic anhydrase 2 and 0.188 µM on Carbonic anhydrase 9.

On to `CCCN(CCC)S(=O)(=O)c1ccc(C(=O)NCCN(CC)CC)cc1`, for which the values for the inhibition constant (Ki) at Carbonic anhydrase 1, at Carbonic anhydrase 2 and on Carbonic anhydrase 9 were over 10 µM, over 10 µM and 0.11 µM, respectively.

With `CCCN(CCC)S(=O)(=O)c1ccc(C(=O)NCC)cc1`, the Ki at Carbonic anhydrase 1 and at Carbonic anhydrase 2 was over 10 µM in each case.

For `CCCN(CCC)S(=O)(=O)c1ccc(C(=O)NCc2ccccc2)cc1`, the Ki at Carbonic anhydrase 1 was over 10 µM; at Carbonic anhydrase 2 it was over 10 µM; at Carbonic anhydrase 9, 0.0206 µM.

Regarding `CCCN(CCC)S(=O)(=O)c1ccc(C(=O)Nc2ccccc2C)cc1`, the Ki was over 10 µM at Carbonic anhydrase 1, over 10 µM on Carbonic anhydrase 2 and 0.0613 µM at Carbonic anhydrase 9.

Consider `CCCN(CCC)S(=O)(=O)c1ccc(C(=O)Nc2ccccn2)cc1`, for which the results for the Ki on Carbonic anhydrase 2 and on Carbonic anhydrase 9 were over 10 µM and 0.199 µM, respectively.
